Measurements reported in patent US20130309306A1, “INTRAPULMONARY BENZODIAZEPINE FOR THE TREATMENT AND PREVENTION OF SEIZURES” (priority 2010, published 2013).

Tested on: PTZ-induced seizures
Assay: PTZ seizure threshold test, tonic extension endpoint, Example 2
Type: in vivo, mice
Description: NIH Swiss mice (22-30 g) were kept in a vivarium under controlled environmental conditions (temperature, 22-26° C.; humidity, 40-50%) with an artificial 12-h light/dark cycle. Wood chips were used in all cages. Experiments were performed during the light phase of the light/dark cycle after a minimum 30-min period of acclimation to the experimental room. The animal facilities were fully accredited by the Association for Assessment and Accreditation of Laboratory Animal Care. All studies were performed under protocols approved by the Animal Care and Use Committee of the University of California, Davis in strict compliance with the Guide for the Care and Use of Laboratory Animals of the National Research Council (National Academy Press, Washington, D.C.; on the internet at nap.edu/readingroom/books/labrats/).
Midazolam was administered as a commercially available injectable solution (midazolam hydrochloride, 10 mg/10 ml; APP Pharmaceuticals, Schaumburg, Ill., USA) containing sodium chloride (0.8% w/v), disodium edetate (0.01% w/v), benzyl alcohol as preservative (1% v/v) with HCl to adjust the pH 3-3.6. Pentylenetetrazol (PTZ) (Sigma-Aldrich, St. Louis, Mo., USA) was dissolved in 0.9% w/v saline. The remaining test substances were all obtained from Tocris Bioscience (Ellisville, Mo., USA) except for clonazepam, which was from Sigma-Aldrich. Finasteride was dissolved in 25% hydroxypropyl-β-cyclodextrin (Trappsol; Cyclodextrin Technologies Development, High Springs, Fla., U.S.A.). Metyrapone was dissolved in double distilled water and PK 11195 and clonazepam were suspended in 1% Tween 80 and adjusted to volume with saline.
PTZ seizure threshold was determined according to a protocol used previously in our laboratory (Dhir et al., 2011). Intravenous PTZ elicits a sequence of seizure signs beginning with twitch and progressing to clonus and tonic limb extension. In the present study, tonic extension was used as the endpoint. […] It is noteworthy that this is the endpoint originally used in studies characterizing the actions of midazolam against PTZ seizures in mice (Pieri, 1983 Br J Clin Pharmacol 16 Suppl 1: 17S-27S). A 27 gauge-¾ inch “butterfly” needle was inserted into the lateral tail vein and the needle was secured with a narrow piece of adhesive tape. The animal was placed inside a 2 L glass beaker with free aeration from the top and allowed to move freely. The needle was connected by polyethylene tubing to a Beckton, Dickinson 1 ml syringe mounted on an infusion pump (Model ‘11’ plus syringe pump; Harvard Apparatus, Holliston, Mass.). PTZ solution (10 mg/ml) was infused at a constant rate of 0.5 ml/min. The infusion was stopped at 3 min or at the onset of tonic extension, whichever occurred first. The threshold value (mg/kg) for tonic extension was determined according to the formula: (infusion duration [sec]×infusion rate [ml/min]×PTZ concentration [mg/ml]×1000)/(60 [sec]×weight of mouse [g]).
In an initial experiment, the dose-response relationship for midazolam elevation of seizure threshold was assessed at doses of 100 μg/kg to 5 mg/kg (15 min pretreatment time). […] PK 11195 was used at a dose (15 mg/kg) as in the study of Ugale et al. (2004 Brain Res. 2004 Oct. 8; 1023(1):102-11). Clonazepam was administered at a dose of 100 μg/kg (Akula et al., 2009). The volume of all intraperitoneal injections was 10 ml/kg.
Results are expressed as mean±S.E.M.; the significance of the difference in the responses of treatment groups with respect to control is based on one-way analysis of variance (ANOVA) followed by specific post-hoc comparisons using Tukey's test. Differences are considered statistically significant when the probability of type I error was less than 0.05.

CC(C)(C)NC(=O)[C@H]1CC[C@H]2[C@@H]3CC[C@H]4NC(=O)C=C[C@]4(C)[C@H]3CC[C@]12C [finasteride]
effect on threshold elevation caused by intratracheal midazolam (finasteride 100 mg/kg i.p. 5 min before midazolam 100 μg/kg intratracheal (FIG. 13)): did significantly reduce the threshold elevation | effect on threshold elevation caused by midazolam (finasteride 100 mg/kg i.p. 5 min before midazolam 500 μg/kg i.p. (FIG. 8)): partially reduce the threshold elevation | effect on seizure threshold elevation produced by clonazepam (finasteride 100 mg/kg i.p. before clonazepam 100 μg/kg i.p. (FIG. 11 upper panel)): did reduce the seizure threshold elevation | PTZ seizure threshold, pretreatment by itself (finasteride 100 mg/kg i.p., no midazolam (FIG. 8)): did not alter the PTZ seizure threshold | PTZ seizure threshold, pretreatment by itself (finasteride 50 and 100 mg/kg i.p. (FIG. 13)): did not alter the PTZ seizure threshold | effect on seizure threshold elevation produced by clonazepam (finasteride before lower dose of clonazepam 25 μg/kg): trend toward an effect of finasteride, although it did not reach statistical significance

O=C1CN=C(c2ccccc2Cl)c2cc([N+](=O)[O-])ccc2N1 [clonazepam]
increase in threshold for tonic extension (vs vehicle only control) (clonazepam 100 μg/kg i.p., 15 min before i.v. PTZ infusion, in the absence of finasteride): 2.8 fold

CCC(C)N(C)C(=O)c1cc2ccccc2c(-c2ccccc2Cl)n1 (centres unmarked) [PK 11195, 1-(2-chlorophenyl)-N-methyl-N-(1-methylpropyl)-3-isoquinolinecarboxamide]
PTZ seizure threshold, by itself (PK 11195 15 mg/kg i.p.): did not affect the seizure threshold | effect on seizure threshold elevation produced by clonazepam (PK 11195 15 mg/kg i.p. 30 min before clonazepam (FIG. 11 lower panel)): did not reduce the seizure threshold elevation | effect on threshold elevation produced by midazolam (PK 11195 15 mg/kg i.p. 30 min before midazolam 500 μg/kg i.p. (FIG. 10)): significantly reduced the elevation in threshold

CCOC(=O)c1ncn2c1CN(C)C(=O)c1cc(F)ccc1-2 [flumazenil]
effect on threshold elevation caused by intratracheal midazolam (flumazenil 5 mg/kg i.p. 5 min before midazolam 100 and 200 μg/kg intratracheal (FIG. 12)): did abolish the threshold elevation | PTZ seizure threshold, pretreatment by itself (flumazenil 5 mg/kg i.p. (FIG. 12)): did not alter the PTZ seizure threshold

CC(C)(C(=O)c1cccnc1)c1cccnc1 [metyrapone]
PTZ seizure threshold when administered prior to midazolam (metyrapone 100 mg/kg i.p. 15 min before midazolam 500 μg/kg i.p. (FIG. 9)): further increment in threshold | PTZ seizure threshold, by itself (metyrapone 100 mg/kg i.p. (FIG. 9)): significant elevation in the threshold
